# Measured values: ChEMBL document CHEMBL4706612 (Eur J Med Chem, 2021)
# What was measured:
# [1] = Inhibition of human MetAp1a by Morrison method
# [2] = Inhibition of Vibrio parahaemolyticus MetAp1a by Morrison method
# [3] = Inhibition of Vibrio cholerae MetAp1a by Morrison method
# [4] = Inhibition of Vibrio coralliilyticus MetAp1a by Morrison method
Compound,Ki [1] [nM],Ki [2] [nM],Ki [3] [nM],Ki [4] [nM]
Oc1nc(-c2ccccn2)nc2c1CSCC2,760,24000,39000,7650
Cc1nc(-c2ccccn2)nc(SCC(=O)N2CCOCC2)c1Cl,170,12600,7960,–
Cc1cc(S)nc(-c2ccccn2)n1,150,200,120,16200
Cc1cc(Oc2ccc(Cl)cc2)nc(-c2ccccn2)n1,230,350,730,–
Cc1nc(-c2ccccn2)nc(N(C)c2ccccc2)c1Cl,770,240,490,–
COc1ccc(C(=O)CSc2nc(-c3ccccn3)nc(C)c2Cl)cc1,–,5710,1430,–
Cc1nc(-c2ccccn2)nc(SCC(=O)c2ccc(F)cc2)c1Cl,2350,1900,1890,–
Cc1nc(-c2ccccn2)nc(N2CCOCC2)c1Cl,110,1620,880,–
CC(C)S(=O)(=O)c1cnc(-c2ccccn2)nc1N,220,35000,60,49300
Cc1nc(-c2ccccn2)nc(NCCNc2cccc(C(F)(F)F)n2)c1Cl,–,7910,3560,–
Cc1nc(-c2ccccn2)nc(NC2CCN(c3ncc(C(F)(F)F)cc3Cl)CC2)c1Cl,–,4560,4780,–
Cc1nc(-c2ccccn2)nc(N2CCN(c3ncnc4scc(-c5ccccc5)c34)CC2)c1Cl,–,1950,480,–
Cc1nc(-c2ccccn2)nc(N2CCCN(Cc3ccc(Cl)cc3Cl)CC2)c1Cl,850,3230,730,–
Oc1cc(C(F)(F)F)nc(-c2ccccn2)n1,100,90,150,13100
FC(F)(F)c1nc(-c2ccccn2)ncc1-c1nnnn1-c1ccc(Cl)cc1,–,10800,–,–
FC(F)(F)c1cccc(-c2nc(-c3ccccn3)ncc2-c2nnnn2-c2ccccc2)c1,43900,2730,1130,–
Cc1nc(-c2ccccn2)nc(N2CCN(C)CC2)c1Cl,290,480,200,–
Cc1cc(Oc2cc(Cl)cc(Cl)c2)nc(-c2ccccn2)n1,4210,280,50,–
Cc1cc(O)nc(-c2ccccn2)n1,620,210,300,6800

Compound,Ki [1] [nM],Ki [2] [nM],Ki [3] [nM],Ki [4] [nM]
CSc1nc(-c2ccccn2)nc(N)c1C#N,210,130,680,–
Cc1nc(-c2ccccn2)nc(O)c1Cc1c(Cl)cccc1Cl,–,160,230,10200
Cc1nc(-c2ccccn2)nc(O)c1CC1CC1,130,80,320,9290
FC(F)(F)c1cc(Nc2cc(Cl)cc(Cl)c2)nc(-c2ccccn2)n1,–,140,60,–
CCCCCc1c(C)nc(-c2ccccn2)nc1O,70,3310,720,11600
C=CC(C)c1c(O)nc(-c2ccccn2)nc1CCC (centres undefined),80,150,310,7240
CCCc1nc(-c2ccccn2)nc(O)c1CC1CC1,1380,1130,70,9130
Nc1cc(O)nc(-c2ccccn2)n1,650,240,80,11900
CCOC(=O)c1cnc(-c2ccccn2)nc1O,510,1420,110,5930
CC(=O)Nc1cc(O)nc(-c2ccccn2)n1,1480,1110,90,5120
Cc1nc(-c2ccc(C(F)(F)F)cn2)nc(N2CCCCC2)c1Cl,55800,–,4610,–
Cc1nc(-c2ccc(C(F)(F)F)cn2)nc(Sc2ccc(Cl)cc2)c1Cl,–,16200,6960,–
c1ccc(-c2ccccn2)nc1,390,2910,2840,2830
Cc1nc(-c2ccccn2)nc(N2CCN(CCO)CC2)c1Cl,–,3710,600,–
Cc1nc(-c2ccccn2)nc(NCCc2ccccc2)c1Cl,–,3730,510,–
CCN(CC)C(=O)Oc1nc(-c2ccccn2)nc(COC)c1CC1CC1,450,2810,2470,–
COCc1nc(-c2ccccn2)nc(O)c1CC1CC1,290,250,160,27500
CCCc1nc(-c2ccccn2)nc(OC(=O)N(C)C)c1Cc1c(F)cccc1Cl,180,600,70,–
